Measured values reported in US6737383B1, “Herbicidal oxadiazolidines” (priority 1999, dated 2004).

How the values were obtained:
blackgrass = test: Test B pre/postemergence blackgrass; format: in vivo, Alopecurus myosuroides
Summary of the method: (§1)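 Herbicidal effect was estimated by eye on a ten-point control scale after plants spent twelve to sixteen days in a greenhouse following soil or foliar treatment. Foliar sprays targeted plants at one to four leaves; all doses were formulated in a non-phytotoxic solvent with surfactant.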

surinam grass = test: Test B pre/postemergence surinam grass; format: in vivo, Brachiaria decumbens
Summary of the method: as §1

cocklebur = test: Test B pre/postemergence cocklebur; format: in vivo, Xanthium strumarium
Summary of the method: as §1

corn = test: Test B pre/postemergence corn; format: in vivo, Zea mays
Summary of the method: as §1

crabgrass = test: Test B pre/postemergence crabgrass; format: in vivo, Digitaria sanguinalis
Summary of the method: as §1

giant foxtail = test: Test B pre/postemergence giant foxtail; format: in vivo, Setaria faberii
Summary of the method: as §1

morningglory = test: Test B pre/postemergence morningglory; format: in vivo, Ipomoea hederacea
Summary of the method: as §1

pigweed = test: Test B pre/postemergence pigweed; format: in vivo, Amaranthus retroflexus
Summary of the method: as §1

rape = test: Test B pre/postemergence rape; format: in vivo, Brassica napus
Summary of the method: as §1

soybean = test: Test B pre/postemergence soybean; format: in vivo, Glycine max
Summary of the method: as §1

sugar beet = test: Test B pre/postemergence sugar beet; format: in vivo, Beta vulgaris
Summary of the method: as §1

velvetleaf = test: Test B pre/postemergence velvetleaf; format: in vivo, Abutilon theophrasti
Summary of the method: as §1

wild oat = test: Test B pre/postemergence wild oat; format: in vivo, Avena fatua
Summary of the method: as §1

purple nutsedge = test: Test B pre/postemergence purple nutsedge; format: in vivo, Cyperus rotundus
Summary of the method: as §1

smallflower flatsedge = test: Test B flood test smallflower flatsedge; format: in vivo, Cyperus difformis; details: for S. Flatsedge plant response rating: scale of 0 to 10 where 0 is no effect and 10 is complete control
Summary of the method: (§2)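 Plants were grown to the 2-leaf stage before treatment with test chemical, then held in a greenhouse for twelve to sixteen days. Injury was visually rated against untreated controls on a 0–10 scale, where 0 is no effect and 10 is complete control.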

bamyardgrass = test: Test B flood test barnyardgrass; format: in vivo, Echinochloa crus-galli
Summary of the method: as §2

[1] = Postemergence, Rate 125 g/ha, scale of 0 to 10 where 0 is no effect and 10 is complete control
[2] = Preemergence, Rate 62 g/ha, scale 0 to 10 (0 no effect, 10 complete control)
[3] = Preemergence, Rate 125 g/ha, 0 is no effect, 10 is complete control
[4] = Preemergence, Rate 250 g/ha, scale 0 to 10, 0 is no effect, 10 is complete control
[5] = Preemergence, Rate 500 g/ha, scale 0 to 10 (0 no effect, 10 complete control)
[6] = Rate 62 g/ha, Postemergence, scale of 0 to 10 where 0 is no effect and 10 is complete control
[7] = Rate 250 g/ha, Postemergence, scale 0 to 10, 0 is no effect, 10 is complete control
[8] = Rate 500 g/ha, Postemergence, scale 0 to 10
[9] = Rate 250 g/ha, Postemergence (flood test), scale 0 to 10, 0 is no effect, 10 is complete control

CC(C)N(C(=O)n1oc(=O)n(C)c1=O)c1ccc(F)cc1 [Compound 138]
0: Cocklebur plant response rating (cocklebur; [1]) | Cocklebur plant response rating (cocklebur; [2]) | Cocklebur plant response rating (cocklebur; [4]) | Cocklebur plant response rating (cocklebur; [5]) | Cocklebur plant response rating (cocklebur; [6]) | Corn plant response rating (corn; [2]) | Corn plant response rating (corn; [6]) | Morningglory plant response rating (morningglory; [2]) | Morningglory plant response rating (0 to 10 scale) (morningglory; [3]) | Rape plant response rating (rape; [1]) | Rape plant response rating (rape; [6]) | Soybean plant response rating (soybean; [2]) | Sugarbeets plant response rating (sugar beet; [1]) | Sugarbeets plant response rating (sugar beet; [6]) | Wild oats plant response rating (wild oat; [6]) | S. Flatsedge plant response rating (smallflower flatsedge; Postemergence (flood test species), Rate 125 g/ha) | S. Flatsedge plant response rating (smallflower flatsedge; Rate 62 g/ha, Postemergence section, flood test species) | Barnyardgrass plant response rating (bamyardgrass; Postemergence (flood test species), Rate 125 g/ha, scale of 0 to 10 where 0 is no effect and 10 is complete control) | Barnyardgrass plant response rating (bamyardgrass; Rate 31 g/ha, Postemergence section (flood test species), scale 0 to 10) | Barnyardgrass plant response rating (bamyardgrass; Rate 62 g/ha, Postemergence section, flood test species, scale of 0 to 10 where 0 is no effect and 10 is complete control)
8: Plant response rating, B. signalgrass (surinam grass; [7]) | B. signalgrass plant response rating (surinam grass; Rate 500 g/ha, Postemergence, scale of 0 to 10 where 0 is no effect and 10 is complete control) | Corn plant response rating (corn; [4]) | Crabgrass plant response rating (crabgrass; [6]) | Redroot pigweed plant response rating (pigweed; [8]) | Soybean plant response rating (soybean; [5]) | Sugarbeets plant response rating (sugar beet; [8]) | Velvetleaf plant response rating (0 to 10 scale) (velvetleaf; [3]) | Wild oats plant response rating (wild oat; [8]) | Plant response rating, Barnyardgrass (bamyardgrass; [9])
10: Crabgrass plant response rating (crabgrass; [4]) | Crabgrass plant response rating (crabgrass; [5]) | Giant foxtail plant response rating (giant foxtail; [4]) | Giant foxtail plant response rating (giant foxtail; [5]) | Morningglory plant response rating (morningglory; [8]) | Redroot pigweed plant response rating (0 to 10 scale) (pigweed; [3]) | Redroot pigweed plant response rating (pigweed; [4]) | Redroot pigweed plant response rating (pigweed; [5]) | Rape plant response rating (rape; [4]) | Rape plant response rating (rape; [5]) | Sugarbeets plant response rating (0 to 10 scale) (sugar beet; [3]) | Sugarbeets plant response rating (sugar beet; [4]) | Sugarbeets plant response rating (sugar beet; [5]) | Velvetleaf plant response rating (velvetleaf; [4]) | Velvetleaf plant response rating (velvetleaf; [5]) | Wild oats plant response rating (wild oat; [5])
7: Blackgrass plant response rating (blackgrass; [6]) | B. signalgrass plant response rating (surinam grass; [1]) | Plant response rating, Corn (corn; [7]) | Corn plant response rating (corn; [8]) | Giant foxtail plant response rating (giant foxtail; [2]) | Plant response rating, Redroot pigweed (pigweed; [7]) | Rape plant response rating (rape; [2]) | Rape plant response rating (rape; [8]) | Velvetleaf plant response rating (velvetleaf; [8]) | Nutsedge plant response rating (purple nutsedge; [4]) | Nutsedge plant response rating (purple nutsedge; [5]) | Plant response rating, S. Flatsedge (smallflower flatsedge; [9])
9: Blackgrass plant response rating (blackgrass; [1]) | Blackgrass plant response rating (blackgrass; [2]) | Blackgrass plant response rating (0 to 10 scale) (blackgrass; [3]) | Blackgrass plant response rating (blackgrass; [4]) | Blackgrass plant response rating (blackgrass; [5]) | Plant response rating, Blackgrass (blackgrass; [7]) | Blackgrass plant response rating (blackgrass; [8]) | B. signalgrass plant response rating (surinam grass; [5]) | Corn plant response rating (corn; [5]) | Crabgrass plant response rating (crabgrass; [1]) | Crabgrass plant response rating (crabgrass; [2]) | Crabgrass plant response rating (0 to 10 scale) (crabgrass; [3]) | Plant response rating, Crabgrass (crabgrass; [7]) | Crabgrass plant response rating (crabgrass; [8]) | Giant foxtail plant response rating (giant foxtail; [1]) | Giant foxtail plant response rating (0 to 10 scale) (giant foxtail; [3]) | Giant foxtail plant response rating (giant foxtail; [6]) | Plant response rating, Giant foxtail (giant foxtail; [7]) | Giant foxtail plant response rating (giant foxtail; [8]) | Redroot pigweed plant response rating (pigweed; [2]) | Rape plant response rating (0 to 10 scale) (rape; [3]) | Sugarbeets plant response rating (sugar beet; [2]) | Wild oats plant response rating (0 to 10 scale) (wild oat; [3])
4: B. signalgrass plant response rating (0 to 10 scale) (surinam grass; [3]) | Corn plant response rating (corn; [1]) | Morningglory plant response rating (morningglory; [5]) | Soybean plant response rating (0 to 10 scale) (soybean; [3]) | Plant response rating, Soybean (soybean; [7]) | Soybean plant response rating (soybean; [8]) | Velvetleaf plant response rating (velvetleaf; [1]) | Plant response rating, Velvetleaf (velvetleaf; [7]) | Nutsedge plant response rating (purple nutsedge; [6])
6: B. signalgrass plant response rating (surinam grass; [4]) | Plant response rating, Morningglory (morningglory; [7]) | Plant response rating, Sugarbeets (sugar beet; [7]) | Plant response rating, Nutsedge (purple nutsedge; [7])
5: B. signalgrass plant response rating (surinam grass; [6]) | Morningglory plant response rating (morningglory; [1]) | Morningglory plant response rating (morningglory; [6]) | Redroot pigweed plant response rating (pigweed; [1]) | Soybean plant response rating (soybean; [4]) | Velvetleaf plant response rating (velvetleaf; [2]) | Wild oats plant response rating (wild oat; [2]) | Nutsedge plant response rating (purple nutsedge; [1]) | Nutsedge plant response rating (0 to 10 scale) (purple nutsedge; [3])
2: B. signalgrass plant response rating (surinam grass; [2]) | Plant response rating, Cocklebur (cocklebur; [7]) | Plant response rating, Rape (rape; [7]) | Soybean plant response rating (soybean; [6]) | Velvetleaf plant response rating (velvetleaf; [6]) | Wild oats plant response rating (wild oat; [1]) | Nutsedge plant response rating (purple nutsedge; [2])
3: Cocklebur plant response rating (cocklebur; [8]) | Corn plant response rating (0 to 10 scale) (corn; [3]) | Morningglory plant response rating (morningglory; [4]) | Redroot pigweed plant response rating (pigweed; [6]) | Soybean plant response rating (soybean; [1]) | Plant response rating, Wild oats (wild oat; [7])
